# Patent US6326516A, “Acetylenic β-sulfonamido and phosphinic acid amide hydroxamic acid TACE inhibitors” (American Cyanamid Company, priority 2000, dated 2001)
# Like-named read-outs stand apart in the source and are kept apart here.
# What was measured:
# [1] = molecular target: TNF-α converting enzyme (TACE) (Homo sapiens, UniProt P78536); experiment: TACE inhibition (fluorescent peptidyl substrate); assay type: biochemical
# Description: Using 96-well black microtiter plates, each well receives a solution composed of 10 μL TACE (fmal concentration 1 μg/mL), 70 μL Tris buffer, pH 7.4 containing 10% glycerol (final concentration 10 mM), and 10 μL of test compound solution in DMSO (final concentration 1 μM, DMSO concentration <1%) and incubated for 10 minutes at room temperature. The reaction is initiated by addition of a fluorescent peptidyl substrate (final concentration 100 μM) to each well and then shaking on a shaker for 5 sec.
# The reaction is read (excitation 340 nm, emission 420 nm) for 10 min. and the increase in fluorescence over time is plotted as a linear line. The slope of the line is calculated and represents the reaction rate.
# (§1) The linearity of the reaction rate is confirmed (r^2 >0.85). The mean (x±sem) of the control rate is calculated and compared for statistical significance (p<0.05) with drug-treated rates using Dunnett's multiple comparison test. Dose-response relationships can be generate using multiple doses of drug and IC50 values with 95% CI are estimated using linear regression.
# THP-1 cells = experiment: Human Monocytic THP-1 Cell Differentiation Assay for Soluble Proteins (THP-1 Soluble Protein Assay); assay type: cell-based
# Description: THP-1 cells (from ATCC) are a human monocytic cell line which were obtained from the peripheral blood of a person with acute monocytic leukemia. They can be grown in culture and differentiated into macrophage like cells by stimulation with mitogens.
# For the assay, THP-1 cells are seeded from an ATCC stock which was previously grown and frozen back at 5×10^6/ml/vial. One vial is seeded into a T25-flask with 16 mls of RPMI-1640 with glutamax (Gibco) media containing 10% fetal bovine serum, 100 units/ml penicillin, 100 μg/ml streptomycin, and 5×10^-5 M 2-mercapto-ethanol (THP-1 media). Each vial of cells are cultured for about two weeks prior to being used for an assay and then are used for only 4 to 6 weeks to screen compounds. Cells are subcultured on Mondays and Thursdays to a concentration of 1×10^5/ml.
# To perform an assay, the THP-1 cells are co-incubated in a 24 well plate with […] of a 24 mg/ml stock of Lipopolysacharide (LPS) (Calbiochem Lot# B13189) at 37° C. in 5% CO2 at a concentration of 1.091×10^6 cells/ml (1.1 ml/well) for a total of 24 hours. At the same time, […] of drug, vehicle or THP-1 media is plated in appropriate wells to give a final volume of 1.2 ml/well. Standard and test compounds are dissolved in DMSO at a concentration of 36 mM and diluted from here to the appropriate concentrations in THP-1 media and added to the wells at the beginning of the incubation period to give final concentrations of […], 300 nM, and 100 nM. Cell exposure to DMSO was limited to 0.1% final concentration. Positive control wells were included in the experiment which had mitogen added but no drug. Vehicle control wells were included as well, which were identical to the positive control wells, except that DMSO was added to give a final concentration of 0.083%. Negative control wells were included in the experiment which had vehicle but no mitogen or drug added to the cells. Compounds can be evaluated for their effect on basal (non-stimulated) shedding of the receptors by replacing the LPS with […] of THP-1 media. Plates are placed into an incubator set at 5% CO2 and at 37° C. After 4 hours of incubation, […] of tissue culture supernatant (TCS) is removed for use in an TNF-α ELISA. Following 24 hours of incubation, […] of TCS is removed and used for analysis in TNF-R p75/80, TNF-R p55/60 and IL-8 ELISAs.
# In addition, at the 24 hours timepoint, and the cells for each treatment group are collected by resuspension in 500 μl/well of THP-1 media and transferred into a FACS tube. Two ml/tube of a 0.5 mg/ml stock of propidium iodide (PI) (Boerhinger Mannheim cat. # 1348639) is added. The samples are run on a Becton Dickinson FaxCaliber FLOW cytometry machine and the amount of dye taken up by each cell is measured in the high red wavelength (FL3). Only cells with compromised membranes (dead or dying) can take up PI. The percent of live cells is calculated by the number of cells not stained with PI, divided by the total number of cells in the sample. The viability values calculated for the drug treated groups were compared to the viability value calculated for the vehicle treated mitogen stimulated group ("vehicle positive control") to determine the "percent change from control". This "percent change from control" value is an indicator of drug toxicity.
# The quantity of soluble TNF-α, TNF-R p75/80 and TNF-R p55/60 and IL-8 in the TCS of the THP-1 cell cultures are obtained with commercially available ELISAs from R&D Systems, by extrapolation from a standard curve generated with kit standards. The number of cells that either take up or exclude PI are measured by the FLOW cytometry machine and visualized by histograms using commercially available Cytologic software for each treatment group including all controls. […]
# MMP-13 = MMP-13 (Homo sapiens, UniProt P45452); experiment: MMP-13 inhibition (thiopeptide or fluorescent peptide substrate); assay type: biochemical
# Description: (§2) The enzyme activity is measured by the rate of the color increase. The thiopeptide substrate is made up fresh as a 20 mM stock in 100% DMSO and the DTNB is dissolved in 100% DMSO as a 100 mM stock and stored in the dark at room temperature. Both the substrate and DTNB are diluted together to 1 mM with substrate buffer (50 mM HEPES pH 7.5, 5 mM CaCl2) before use. The stock of enzyme is diluted with buffer (50 mM HEPES, pH 7.5, 5 mM CaCl2, 0.02% Brij) to the desired final concentration. The buffer, enzyme, vehicle or inhibitor, and DTNB/substrate are added in this order to a 96 well plate (total reaction volume of 200 μl) and the increase in color is monitored spectrophotometrically for 5 minutes at 405 nm on a plate reader and the increase in color over time is plotted as a linear line.
# (§3) Alternatively, a fluorescent peptide substrate is used. In this test procedure, the peptide substrate contains a fluorescent group and a quenching group. Upon cleavage of the substrate by an MMP, the fluorescence that is generated is quantitated on the fluorescence plate reader. The assay is run in HCBC assay buffer (50 mM HEPES, pH 7.0, 5 mM Ca^+2, 0.02% Brij, 0.5% Cysteine), with human recombinant MMP-1, MMP-9, or MMP-13. The substrate is dissolved in methanol and stored frozen in 1 mM aliquots. For the assay, substrate and enzymes are diluted in HCBC buffer to the desired concentrations. Compounds are added to the 96 well plate containing enzyme and the reaction is started by the addition of substrate. The reaction is read (excitation 340 nm, emission 444 nm) for 10 min. and the increase in fluorescence over time is plotted as a linear line.
# as §1, with “For either the thiopeptide or fluorescent peptide test procedures, the slope of the line is calculated and represents the reaction rate. The linearity” for “The linearity”, “can be generated using multiple” for “can be generate using multiple”
# MMP-9 = MMP-9 (Homo sapiens, UniProt P14780); experiment: MMP-9 inhibition (thiopeptide or fluorescent peptide substrate); assay type: biochemical
# Description: as §2, §3
# as §1, with “For either the thiopeptide or fluorescent peptide test procedures, the slope of the line is calculated and represents the reaction rate. The linearity” for “The linearity”, “can be generated using multiple” for “can be generate using multiple”
# MMP-1 = molecular target: T1, MMP-1 (Homo sapiens, UniProt P03956); experiment: MMP-1 inhibition (thiopeptide or fluorescent peptide substrate); assay type: biochemical
# T1 sequence (P03956 100-469): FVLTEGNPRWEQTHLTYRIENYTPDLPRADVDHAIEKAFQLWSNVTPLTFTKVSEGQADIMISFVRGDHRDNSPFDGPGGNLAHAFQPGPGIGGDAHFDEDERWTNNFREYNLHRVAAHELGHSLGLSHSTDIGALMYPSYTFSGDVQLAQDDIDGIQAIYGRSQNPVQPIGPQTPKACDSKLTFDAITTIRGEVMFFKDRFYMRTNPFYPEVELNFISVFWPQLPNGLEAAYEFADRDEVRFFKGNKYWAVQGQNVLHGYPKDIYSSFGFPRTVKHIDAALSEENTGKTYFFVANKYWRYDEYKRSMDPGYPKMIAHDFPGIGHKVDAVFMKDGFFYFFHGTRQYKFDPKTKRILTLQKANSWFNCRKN
# Description: as §2, §3
# as §1, with “For either the thiopeptide or fluorescent peptide test procedures, the slope of the line is calculated and represents the reaction rate. The linearity” for “The linearity”, “can be generated using multiple” for “can be generate using multiple”
# Sequence of TNF-α converting enzyme (TACE) (P78536 215-824): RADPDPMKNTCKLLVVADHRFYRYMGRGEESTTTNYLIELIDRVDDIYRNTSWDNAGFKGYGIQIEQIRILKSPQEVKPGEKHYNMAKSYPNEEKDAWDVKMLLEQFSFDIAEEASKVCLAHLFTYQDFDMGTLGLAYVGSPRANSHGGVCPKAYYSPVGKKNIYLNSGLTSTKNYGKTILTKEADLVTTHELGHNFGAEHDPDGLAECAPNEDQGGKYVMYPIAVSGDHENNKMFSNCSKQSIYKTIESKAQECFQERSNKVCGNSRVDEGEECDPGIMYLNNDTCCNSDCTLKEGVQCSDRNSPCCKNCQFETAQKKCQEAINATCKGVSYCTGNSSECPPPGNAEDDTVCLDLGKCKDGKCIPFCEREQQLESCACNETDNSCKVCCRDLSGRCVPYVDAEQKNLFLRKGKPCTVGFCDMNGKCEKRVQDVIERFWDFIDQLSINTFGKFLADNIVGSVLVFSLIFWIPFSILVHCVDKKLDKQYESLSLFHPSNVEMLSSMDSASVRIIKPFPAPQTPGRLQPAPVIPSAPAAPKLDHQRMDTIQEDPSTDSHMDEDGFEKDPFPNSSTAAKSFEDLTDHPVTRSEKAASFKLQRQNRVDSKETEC
# Sequence of MMP-9 (P14780 94-707): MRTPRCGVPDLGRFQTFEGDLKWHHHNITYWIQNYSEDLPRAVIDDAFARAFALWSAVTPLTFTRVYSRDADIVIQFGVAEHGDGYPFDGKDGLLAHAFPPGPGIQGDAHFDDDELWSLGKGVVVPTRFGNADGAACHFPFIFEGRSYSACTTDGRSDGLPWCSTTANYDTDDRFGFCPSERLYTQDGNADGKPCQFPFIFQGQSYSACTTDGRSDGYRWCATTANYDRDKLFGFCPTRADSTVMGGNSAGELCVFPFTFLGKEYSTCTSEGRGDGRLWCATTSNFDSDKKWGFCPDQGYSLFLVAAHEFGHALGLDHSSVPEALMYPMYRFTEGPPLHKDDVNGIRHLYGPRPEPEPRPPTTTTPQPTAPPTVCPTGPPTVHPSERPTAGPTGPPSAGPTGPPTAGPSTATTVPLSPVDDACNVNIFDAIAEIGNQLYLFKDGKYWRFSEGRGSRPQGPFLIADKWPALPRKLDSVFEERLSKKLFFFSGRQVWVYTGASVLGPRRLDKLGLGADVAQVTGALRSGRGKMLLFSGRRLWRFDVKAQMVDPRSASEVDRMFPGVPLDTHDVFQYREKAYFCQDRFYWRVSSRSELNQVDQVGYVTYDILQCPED
SMILES,IC50 [1],IC50 (MMP-13),IC50 (MMP-9),IC50 (MMP-1; bounds given in uM),IC50 (MMP-13; bounds given in uM),IC50 (MMP-9; bounds given in uM),IC50 (MMP-1),inhibition at 3 µM (THP-1 cells)
"CC#CCOc1ccc(S(=O)(=O)N(C)CCC(=O)NO)cc1 [Example 24, 3-({[4-(2-Butynyloxy)phenyl]sulfonyl}(methyl)amino)-N-hydroxypropanamide]",0.073 µM,,,,,,,9%
CC#CCOc1ccc(S(=O)(=O)N[C@H]2CCC[C@H]2C(=O)NO)cc1 [Example 26],0.015 µM,0.672 µM,5.06 µM,> 1 µM,,,,23%
"CC#CCOc1ccc(S(=O)(=O)NC2C3CCC(C3)C2C(=O)NO)cc1 [Example 38, (1R,2R,3S,4R)-(Cis)-3-({[4-(2-butynyloxy)phenyl]sulfonyl}amino)-N-hydroxybicyclo[2.2.1]heptane-2-carboxamide]",0.03 µM,,,> 10 µM,~10 µM,> 10 µM,,9%
"CC#CCOc1ccc(S(=O)(=O)N(C)[C@H]2CCC[C@H]2C(=O)NO)cc1 [Example 30, (1R,2S)-2-[{[4-(2-Butynyloxy)phenyl]sulfonyl}(methyl)amino]N-hydroxycyclopentanecarboxamide]",0.014 µM,0.308 µM,0.383 µM,,,,2.77 µM,65%
"CC#CCOc1ccc(S(=O)(=O)N[C@H]2CCCC[C@H]2C(=O)NO)cc1 (relative stereo) [Example 32, (Cis)-2-[{[4-(2-butynyloxy)phenyl]sulfonyl}amino)-N-hydroxycyclohexanecarboxamide]",0.036 µM,1.74 µM,,> 10 µM,,~10 µM,,29%
"CC#CCOc1ccc(S(=O)(=O)N(C)[C@@H]2CCCC[C@H]2C(=O)NO)cc1 [Example 17, (1R,2R)-2-[{[4-(2-Butynyloxy)phenyl]sulfonyl}(methyl)amino]-N-hydroxycyclohexanecarboxamide]",0.028 µM,,,> 10 µM,> 10 µM,> 10 µM,,14%
"CC#CCOc1ccc(S(=O)(=O)N(C)[C@H]2CCCC[C@H]2C(=O)NO)cc1 (relative stereo) [Example 36, (Cis)-2-[{[4-(2-butynyloxy)phenyl]sulfonyl}(methyl)amino]-N-hydroxycyclohexanecarboxamide]",0.053 µM,1.82 µM,1.32 µM,,,,4.23 µM,23%

# More lines, main results first:
IC50 [1],IC50 (MMP-13),IC50 (MMP-9),IC50 (MMP-1; bounds given in uM),IC50 (MMP-13; bounds given in uM),IC50 (MMP-9; bounds given in uM),IC50 (MMP-1),SMILES,inhibition at 3 µM (THP-1 cells)
0.145 µM,,,,,,,"CC#CCOc1ccc(S(=O)(=O)NCCC(=O)NO)cc1 [Example 21, 3-({[4-(2-Butynyloxy)phenyl]sulfonyl}amino)-N-hydroxypropanamide]",0%
0.062 µM,1.14 µM,,~10 µM,,,,"CC#CCOc1ccc(S(=O)(=O)N(C)C2C3CCC(C3)C2C(=O)NO)cc1 [Example 42, (1R,2R,3S,4R)-(Cis)-3-({[4-(2-butynyloxy)phenyl]sulfonyl}(methyl)amino)-N-hydroxybicyclo[2.2.1]heptane-2-carboxamide]",77%
0.061 µM,,,> 10 µM,> 10 µM,> 10 µM,,"CC#CCOc1ccc(S(=O)(=O)N[C@@H]2CCCC[C@H]2C(=O)NO)cc1 [Example 18, (1R,2R)-2-({[4-(2-Butynyloxy)phenyl]sulfonyl}amino)-N-hydroxycyclohexanecarboxamide]",1%
